The test system of assay [1] is human platelets in plasma. As to the kind of experiment: Platelet aggregation in platelet-rich plasma (light transmission aggregometry). It counts as cell-based. Conditions: in the presence of both TPα and P2Y12 antagonists (dual inhibition; DAPT), FIG. 3.
For assay [2], the system named is human platelets in plasma. The assay is described as above. It counts as cell-based. Conditions: 20 min, n=5, mean±S.E.M. How it is done:
With approval from the regional ethical board Örebro-Uppsala county (Dnr 2015/543) blood was obtained from healthy volunteers, who denied to have taken any medication two weeks prior to donation, by venipuncture and drawn into 10 ml syringes preloaded by the supplier with trisodium citrate solution (Sarstedt, Nümbrecht, Germany, Order number: 02.1067.001) The blood was and centrifuged at 220 g for 20 min. The PRP thus obtained was transferred into fresh 15 ml polypropylene tubes, and the remaining blood was centrifuged at 2200 g for 20 min to separate the PPP from remaining blood cells.
Measurements were performed at 37° C. using Chrono-Log lumi-aggregometer (Model 700, Chrono-log Corporation, Havertown, Pa., USA) with stirring at 900 rev./min using a final volume of 0.3 ml platelet suspension. Aggregation is expressed as percentage light transmission compared with PPP alone (=100%).
Platelets were preincubated with vehicle or AR-C66096 as indicated for 5 min followed by the stimulation with 1 μg/ml collagen, 10 μM SFLLRN, 30 μg/ml C34, 10 μg/ml fucoidan, or 30 μg/ml dextran sulfate (DxS) (FIG. 4A).
Platelets were preincubated with vehicle or ICI 192,506 as indicated for 5 min followed by the stimulation with 1 μg/ml collagen, 10 μM SFLLRN, 30 μg/ml C34, 10 μg/ml fucoidan, or 30 μg/ml dextran sulfate (DxS) (FIG. 4B).
Platelets were preincubated with vehicle or AR-C66096 and ICI 192,506 as indicated for 5 min followed by the stimulation with 1 μg/ml collagen, 10 μM SFLLRN, 30 μg/ml C34, 10 μg/ml fucoidan, or 30 μg/ml dextran sulfate (DxS) (FIG. 4C).

Assay [3] deals with washed (isolated) human platelets. The following applies: from Kauskot et al. [4]; cited from earlier work.
[4] abbreviates: FIG. 4A, in the presence of P2Y12 receptor antagonist AR-C66096 (5 min preincubation), same agonist concentrations.
The mark [5] stands for this setting: FIG. 4A, vehicle preincubation (no antagonist), 1 μg/ml collagen, 10 μM SFLLRN, 30 μg/ml C34, 10 μg/ml fucoidan, 30 μg/ml DxS.
The mark [6] stands for this setting: FIG. 4B, in the presence of TPα receptor antagonist ICI 192,605 (5 min preincubation), same agonist concentrations.
[7] abbreviates: FIG. 4B, vehicle preincubation (no antagonist), same agonist concentrations.
Where [8] appears, read: FIG. 4C, dual inhibition with AR-C66096 and ICI 192,605 (5 min preincubation), same agonist concentrations.
Setting [9] is: FIG. 4C, vehicle preincubation (no antagonist), same agonist concentrations.

As to Collagen, the “course of platelet aggregation under dual inhibition (reversibility of first phase)” value in assay [1] was “only the first but reversible phase”. Moreover, the “extent of platelet aggregation (percentage light transmission compared with PPP)” value in assay [2] (setting [4]) worked out at 23±4%; in assay [2] (setting [5]), 85±2%; in assay [2] (setting [6]), 21±4%; in assay [2] (setting [7]) it was 90±3%; in assay [2] (setting [8]), 11±2%; in assay [2] (setting [9]) it was 86±2%.

As for SFLLRN, the “course of platelet aggregation under dual inhibition (reversibility of first phase)” value in assay [1] is “only the first but reversible phase”. Also, the “extent of platelet aggregation (percentage light transmission compared with PPP)” value worked out at 5±1% in assay [2] (setting [4]); 91±3% in assay [2] (setting [5]); 15±6% in assay [2] (setting [6]); 91±3% in assay [2] (setting [7]); 3±1% in assay [2] (setting [8]); 93±2% in assay [2] (setting [9]).

dextran sulfate [DxS]: in assay [1], the “course of platelet aggregation under dual inhibition (reversibility of first phase)” value was “irreversible and sustained”. In addition, the “extent of platelet aggregation (percentage light transmission compared with PPP)” value in assay [2] (setting [4]) was determined as 23±6%; in assay [2] (setting [5]) it was 84±5%; in assay [2] (setting [6]), 39±7%; in assay [2] (setting [7]), 88±6%; in assay [2] (setting [8]) it was 37±6%; in assay [2] (setting [9]), 88±6%.

B1: PEAR1-EC: PEAR1 extracellular domain protein (Kauskot et al.) (protein, UniProt Q5VY43 21-755, looked up)
extracellular domain: LNPSDPNTCSFWESFTTTTKESHSRPFSLLPSEPCERPWEGPHTCPQPTVVYRTVYRQVVKTDHRQRLQCCHGFYESRGFCVPLCAQECVHGRCVAPNQCQCVPGWRGDDCSSECAPGMWGPQCDKPCSCGNNSSCDPKSGVCSCPSGLQPPNCLQPCTPGYYGPACQFRCQCHGAPCDPQTGACFCPAERTGPSCDVSCSQGTSGFFCPSTHSCQNGGVFQTPQGSCSCPPGWMGTICSLPCPEGFHGPNCSQECRCHNGGLCDRFTGQCRCAPGYTGDRCREECPVGRFGQDCAETCDCAPDARCFPANGACLCEHGFTGDRCTDRLCPDGFYGLSCQAPCTCDREHSLSCHPMNGECSCLPGWAGLHCNESCPQDTHGPGCQEHCLCLHGGVCQATSGLCQCAPGYTGPHCASLCPPDTYGVNCSARCSCENAIACSPIDGECVCKEGWQRGNCSVPCPPGTWGFSCNASCQCAHEAVCSPQTGACTCTPGWHGAHCQLPCPKGQFGEGCASRCDCDHSDGCDPVHGRCQCQAGWMGARCHLSCPEGLWGVNCSNTCTCKNGGTCLPENGNCVCAPGFRGPSCQRSCQPGRYGKRCVPCKCANHSFCHPSNGTCYCLAGWTGPDCSQPCPPGHWGENCAQTCQCHHGGTCHPQDGSCICPLGWTGHHCLEGCPLGTFGANCSQPCQCGPGEKCHPETGACVCPPGHSGAPCRIGIQEPFTVMPTTPVAYNSL
modifications: extracellular domain
For B1, the “aggregation of washed human platelets” value in assay [3] was “induce aggregation of washed (isolated) human platelets in a concentration-dependent fashion”.

The record behind these values is patent US20220257639A1, “TREATMENT OF PATIENTS UNDER ANTIPLATELET MEDICATION EXPERIENCING ACUTE BLEEDING COMPLICATIONS DURING/AFTER SURGERY” (priority 2019, published 2022).
